Test results: patent US5571793A, “Endoparasiticidal compositions based on open-chain tetradepsipeptides” (Bayer Aktiengesellschaft, priority 1993, dated 1996)

Tested on: Haemonchus contortus
Test: In vivo nematode test Haemonchus contortus/sheep
Details: sheep infected experimentally with Haemonchus contortus; pure active compound orally and/or intravenously; dose at which nematode egg excretion with the faeces stops completely
Procedure: Sheep which had been infected experimentally with Haemonchus contortus were treated after the prepatency period of the parasites had elapsed. The active compounds were administered orally and/or intravenously in the form of the pure active compound.
The degree of effectiveness is determined by quantitatively determining the nematode eggs excreted with the faeces before and after the treatment.
If egg excretion stops completely after the treatment, this means that the nematodes have been aborted or damaged in such a manner that they no longer produce eggs (dosis effectiva).
Active compounds which have been tested and effective dosage rates (dosis effectiva) can be seen from the Table which follows: […]

| Structure (SMILES) | Dosis effectiva |
| --- | --- |
| CCCN(Cc1ccccc1)[C@@H](CC(C)C)C(=O)O[C@H](C)C(=O)N(CCC)[C@@H](CC(C)C)C(=O)O[C@H](Cc1ccccc1)C(=O)O [Example 2, N-Benzyl-N-propyl-L-leucyl-D-lactyl-N-propyl-L-leucyl-D-phenyllactic acid] | 10 mg/kg |
| CCN[C@@H](CC(C)C)C(=O)O[C@H](C)C(=O)N(CC)[C@@H](CC(C)C)C(=O)O[C@H](Cc1ccccc1)C(=O)OC(C)(C)C [Example 1, tert.-Butyl-N-ethyl-L-leucyl-D-lactyl-N-ethyl-L-leucyl-D-3-phenyllactate] | 10 mg/kg |
| CN[C@@H](Cc1ccccc1)C(=O)O[C@H](C)C(=O)N(C)[C@H](Cc1ccccc1)C(=O)O[C@H](C)C(=O)OC(C)(C)C [Example 3, tert.-Butyl-N-methyl-L-phenylalanyl-D-lactyl-N-methyl-D-phenylalanyl-D-lactate] | 10 mg/kg |
